Patent publication US20050208101A1, “Coating composition for an implantable medical device and method for coating such a device” (priority 2002, published 2005)

Test system: Human embryonic fibroblasts
Test: Cell proliferation test with extracts of Elastollan films (Giemsa stain, optical density 620 nm)
Assay type: cell-based
Conditions: extracts obtained in Eagle's medium 37° C. 3 h; cells incubated 72 h; mitomycin C 20 μg/ml for 2 h
Procedure: Elastollan films containing 0.1 and 0.5% by weight shikonin, and Elastollan films without shikonin, were tested.
Human embryonic fibroblasts were employed in these experiments. The cells were cultivated in Eagle's medium with the addition of 10% fetal calf serum and passaged twice a week using a trypsin-EDTA solution. The cells present after the 14th passage were used for the tests.
Mitomycin C dissolved in culture medium in a concentration of 20 μg/ml was used as […] control.
Extracts from Elastollan films without shikonin, Elastollan films with 0.1% by weight and 0.5% by weight shikonin (based on polyurethane), and shikonin alone, were tested.
Extracts were obtained by incubating dishes covered by the polymers to be tested (i.e. Elastollan films without or with shikonin) with Eagle's medium at 37° C. for 3 h. Undissolved solids were removed by filtering. The control with shikonin only (in the culture medium) was cultivated under the same conditions. […]
The stain retained by the cells was eluted with a phosphate buffer/alcohol mixture (1:1) at room temperature for 15 min. The optical density of the resulting solutions was determined by a spectrophotometer with a wavelength of 620 nm.

SMILES: CO[C@@]12[C@H](COC(N)=O)C3=C(C(=O)C(C)=C(N)C3=O)N1C[C@@H]1N[C@@H]12 [mitomycin C, Mitomycin C]
- cell growth of fibroblasts after exposure to the tested extract: no cell growth was observed
